Laboratory results taken from ChEMBL document CHEMBL1201862, “PubChem BioAssay data set” (2004).
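Tested at 5 concentrations; 48 h exposure; 96-well plates; endpoints linearly interpolated, else capped at highest concentration. Here, GI50 denotes the concentration required for 50% inhibition of growth.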 Activity calls are given as the source filed them. Cut-off read from the data, not from the text of the source: active = GI50 up to about 1.1 µM and inactive = higher.

Experiments:
Assay in all cases: NCI tumour cell line growth inhibition, 48 h
786-0 = test system: 786-0
SF-539 = test system: SF-539
K562 = test system: K562
HOP-62 = test system: HOP-62
OVCAR-3 = test system: OVCAR-3
SK-MEL-28 = test system: SK-MEL-28
HT-29 = test system: HT-29
UO-31 = test system: UO-31
A549 = test system: A549
RXF 393 = test system: RXF 393
OVCAR-4 = test system: OVCAR-4
SF-268 = test system: SF-268
CCRF-CEM = test system: CCRF-CEM
UACC-257 = test system: UACC-257
RPMI-8226 = test system: RPMI-8226

Measured: GI50

CN(C)NC1=C([N+](=O)[O-])C=NN(c2ccccc2)C1
inactive: 786-0 1.77 µM | SF-539 1.89 µM | K562 2.44 µM | HOP-62 2.16 µM | OVCAR-3 1.85 µM | SK-MEL-28 1.81 µM | HT-29 1.95 µM | UO-31 1.79 µM | A549 2.1 µM | RXF 393 1.93 µM | OVCAR-4 1.66 µM | SF-268 1.85 µM | CCRF-CEM 1.79 µM | UACC-257 1.74 µM

COc1ccc(OC)c(NC(=O)CCC/C(CC(=O)c2ccc(O)c(OC)c2)=N\NC(=O)C[N+](C)(C)C)c1
inactive: 786-0 > 100 µM | SF-539 > 100 µM | RPMI-8226 79.3 µM | K562 > 100 µM | HOP-62 > 100 µM | OVCAR-3 > 100 µM | SK-MEL-28 > 100 µM | HT-29 > 100 µM | UO-31 > 100 µM | A549 > 100 µM | OVCAR-4 > 100 µM | SF-268 > 100 µM | CCRF-CEM > 100 µM | UACC-257 > 100 µM

O=C1/C(=C/c2ccc3c(c2)OCO3)SC2C=Nc3ccccc3N12 (configuration not stated)
inactive: 786-0 > 100 µM | SF-539 86.1 µM | HOP-62 > 100 µM | OVCAR-3 > 100 µM | SK-MEL-28 > 100 µM | HT-29 > 100 µM | UO-31 > 100 µM | A549 > 100 µM | RXF 393 > 100 µM | OVCAR-4 63.4 µM | SF-268 > 100 µM | UACC-257 > 100 µM

CN(C)CCNC(=O)c1cccc2c1nc(-c1ccccn1)c1ccccc12
inactive: 786-0 18.9 µM | SF-539 16.4 µM | K562 16.9 µM | HOP-62 15.1 µM | OVCAR-3 17.4 µM | SK-MEL-28 15.6 µM | HT-29 16.3 µM | UO-31 10.4 µM | A549 11.8 µM | RXF 393 14.6 µM | OVCAR-4 17.3 µM | SF-268 23.3 µM | CCRF-CEM 13.5 µM | UACC-257 16.7 µM

[O-][S+]1CSCS1 (configuration not stated)
inactive: 786-0 > 100 µM | SF-539 > 100 µM | K562 > 100 µM | HOP-62 > 100 µM | OVCAR-3 > 100 µM | SK-MEL-28 > 100 µM | HT-29 > 100 µM | UO-31 > 100 µM | A549 > 100 µM | RXF 393 > 100 µM | OVCAR-4 > 100 µM | SF-268 > 100 µM | CCRF-CEM > 100 µM | UACC-257 > 100 µM

C#Cc1cccc(N2C(=O)CC(=P(c3ccccc3)(c3ccccc3)c3ccccc3)C2=O)c1
inactive: 786-0 24.5 µM | RPMI-8226 6.4 µM | K562 35.4 µM | HOP-62 67.1 µM | OVCAR-3 31.5 µM | SK-MEL-28 81.3 µM | HT-29 39.6 µM | UO-31 > 100 µM | A549 70 µM | OVCAR-4 69.2 µM | SF-268 62.1 µM | CCRF-CEM 50.1 µM | UACC-257 51.4 µM

O=C(c1nc2ccc(Cl)cc2[nH]c1=O)C(O)c1ccco1 (configuration not stated)
inactive: 786-0 > 100 µM | SF-539 38.1 µM | K562 22.1 µM | OVCAR-3 46 µM | SK-MEL-28 > 100 µM | HT-29 83.6 µM | UO-31 42.9 µM | A549 50 µM | RXF 393 > 100 µM | OVCAR-4 > 100 µM | SF-268 98.9 µM | CCRF-CEM 1.37 µM | UACC-257 > 100 µM

CCn1c(CSc2nc(-c3ccccc3)c(-c3ccccc3)[nH]2)n[nH]c1=S
inactive: 786-0 > 100 µM | SF-539 > 100 µM | RPMI-8226 > 100 µM | HOP-62 > 100 µM | OVCAR-3 > 100 µM | SK-MEL-28 > 100 µM | HT-29 > 100 µM | UO-31 > 100 µM | A549 > 100 µM | OVCAR-4 > 100 µM | SF-268 > 100 µM | CCRF-CEM > 100 µM | UACC-257 > 100 µM
